Measured values from US20120065152A1 (SHIRE LLC, priority 2010, published 2012).
Where two headings read alike, the source gives them in different places.

Legend:
[1] = Comparative bioavailability study of guanfacine in monkeys given guanfacine or guanfacine prodrug; type: in vivo, monkey
Procedure: Blood samples were taken at various times after administration and submitted to analysis for the parent drug and prodrug using a qualified LC-MS-MS assay. The following pharmacokinetic parameters derived from the plasma analytical data were determined using Win Nonlin;

[2] = Pharmacokinetics of guanfacine and prodrug in rat hepatic portal and tail veins after oral prodrug; type: in vivo; conditions: 1 mg/kg
Source text: The collection of blood from the hepatic portal vein following oral administration allows the analysis of absorbed prodrug and active drug levels prior to first pass metabolism in the liver. Systemic levels can be measured by sampling of blood from the tail vein. Rats were surgically prepared under isofluorane anaesthesia by attaching a silicon catheter to the portal vein then exteriorising it at the nape of the neck with a blood collection port attached. Oral doses of compound 3 were administered by gavage as a single bolus dose at a dose volume of 10 mL/kg. At each sampling time serial point blood samples (approximately 0.2 mL) were taken simultaneously from the lateral tail vein cannula and the hepatic portal cannula. After collection of the final blood sample each animal was killed by cervical dislocation. […] Pharmacokinetic parameters in portal and systemic plasma were derived by non-compartmental analysis (linear/logarithmic trapezoidal) using WinNonlin (Version 4.1) software.

a-2A adrenoceptor = target: T1, a-2A adrenoceptor (Homo sapiens, UniProt P08913); experiment: a-2 adrenoceptor binding assay, [3H] RX821002 competition; conditions: human recombinant CHO cells, [3H] RX821002 (1 nM)
T1 construct: expressed in transfected cells; host or cells: CHO cells
T1 sequence (P08913 1-465): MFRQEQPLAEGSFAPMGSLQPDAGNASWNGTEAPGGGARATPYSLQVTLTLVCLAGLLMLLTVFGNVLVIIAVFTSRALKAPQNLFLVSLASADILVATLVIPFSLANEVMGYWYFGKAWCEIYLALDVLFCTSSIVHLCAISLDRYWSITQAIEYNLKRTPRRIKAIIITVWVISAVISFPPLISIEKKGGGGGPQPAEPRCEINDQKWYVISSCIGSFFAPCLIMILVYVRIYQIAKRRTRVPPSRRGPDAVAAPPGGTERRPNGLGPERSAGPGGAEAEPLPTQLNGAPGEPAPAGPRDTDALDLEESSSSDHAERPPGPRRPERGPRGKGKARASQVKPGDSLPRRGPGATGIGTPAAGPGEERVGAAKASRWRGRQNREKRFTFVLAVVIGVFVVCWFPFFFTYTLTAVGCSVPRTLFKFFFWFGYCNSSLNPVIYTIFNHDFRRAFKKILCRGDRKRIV
Source text: The activation of this receptor is responsible for its intended therapeutic effect. […] The binding assay methodology employed in this study followed that described by […] et al. (Eur. J. Pharmacol. 167:95-104, 1989) and used human recombinant CHO cells expressing a-2 adrenceptors. The competitive binding ligand was [3H]

rat GIT transit = experiment: Charcoal propulsion test (gut motility) in rat; type: in vivo; conditions: oral, 60 min before charcoal
Procedure: The effect of a drug on gut motility can be studied by means of the charcoal propulsion test.
The method used was based on that described by Takemori et al. (J. Pharmacol. Exp. Ther. 169:39, 1969). Test treatments were administered orally 60 minutes prior to an oral dose of a 10% suspension of charcoal in 2.5% gum Arabic (2 ml/kg). Twenty minutes after dosing with charcoal, the rats were sacrificed and the entire gastrointestinal tract was removed quickly and carefully. The distance that the charcoal meal had traveled toward the caecum was measured and expressed as a percentage of the total gut length.

[3] = Microdose comparative bioavailability study in healthy adult subjects; type: in vivo; conditions: both sexes, plasma, healthy human volunteers, oral, 100 µg free base
Procedure: Blood samples were withdrawn pre-dose and at 0.5, 1, 2, 3, 4, 5, 6, 8, 12, 16, 24, 32, and 48 hours post dose and submitted to analysis for the parent drug and prodrug using a validated LC-MS-MS assay. The following pharmacokinetic parameters derived from the plasma analytical data were determined;

Solubility = conditions: Solubility

CCOC(=O)NC(N)=NC(=O)Cc1c(Cl)cccc1Cl.Cl [Compound 3, {N′-[2-(2,6-Dichloro-phenyl)-acetyl]-guanidinocarbonyloxy}ethane Hydrochloride]
Cmax ([1]; monkey, plasma, po, 0.5 mg/kg): 0.93 ng/mL
Time after administration up to which systemic prodrug was detectable ([1]; monkeys, 0.5 mg/kg guanfacine free base equivalents): up to 24 hours
AUC ([2]; hepatic portal vein plasma, read-out: Hepatic portal vein Prodrug AUC): 397 ng·h/mL
Cmax ([2]; hepatic portal vein plasma, read-out: Hepatic portal vein Prodrug Cmax): 149 ng/mL
AUC ([2]; tail vein (systemic) plasma, read-out: Tail vein Prodrug AUC): 88.6 ng·h/mL
Cmax ([2]; tail vein (systemic) plasma, read-out: Tail vein Prodrug Cmax): 16.4 ng/mL
Ki (a-2A adrenoceptor): > 10 µM
% inhibition of rat GIT transit (rat GIT transit; dose 00.1 mg/kg (guanfacine free base equivalents)): 15%
% inhibition of rat GIT transit (rat GIT transit; dose 00.3 mg/kg (guanfacine free base equivalents)): 56%
% inhibition of rat GIT transit (rat GIT transit; dose 100 mg/kg (guanfacine free base equivalents)): 57%
half-life ([3]; n = 4, read-out: t½, analyte Compound 3 (converted)): 57 ± 11.4 min
AUC(0-t) ([3]; read-out: AUC0-t, analyte Compound 3): 0.092 ± 0.043 ng·h/mL
Cmax ([3]; read-out: Cmax, analyte Compound 3): 0.089 ± 0.038 ng/mL
solubility (Solubility; DMSO, organic solvent or mixture, in DMSO): > 10000 µg/mL
solubility (Solubility; water, in water): < 1000 µg/mL
